In brackets after ≈: the same amount, converted by molar mass.

Experiment in all cases: CYP inhibition by substrate-cocktail method in HLM
What all share (assay type): in vitro ADME

In one data set the target is T1, human CYP2C8 (Homo sapiens, UniProt P10632).
T1 sequence (P10632 1-490): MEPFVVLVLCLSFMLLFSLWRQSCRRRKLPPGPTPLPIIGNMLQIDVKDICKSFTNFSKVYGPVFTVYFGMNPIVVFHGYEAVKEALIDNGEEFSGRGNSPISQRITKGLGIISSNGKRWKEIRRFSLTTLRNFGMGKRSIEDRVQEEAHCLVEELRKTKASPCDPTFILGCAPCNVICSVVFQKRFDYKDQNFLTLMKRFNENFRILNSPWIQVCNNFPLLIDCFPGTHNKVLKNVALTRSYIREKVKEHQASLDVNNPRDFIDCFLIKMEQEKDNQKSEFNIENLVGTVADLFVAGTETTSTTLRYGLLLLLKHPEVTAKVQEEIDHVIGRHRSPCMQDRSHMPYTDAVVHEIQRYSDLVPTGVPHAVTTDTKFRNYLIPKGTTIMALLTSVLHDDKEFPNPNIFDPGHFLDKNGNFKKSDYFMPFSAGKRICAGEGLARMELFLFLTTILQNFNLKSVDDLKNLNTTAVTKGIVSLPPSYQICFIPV

The target of the next data set is CYP2D6 (Homo sapiens, UniProt P10635). The conditions noted are these: human liver microsomes, pH 7.4, probe dextromethorphan.
CYP2D6, sequence (P10635 whole entry): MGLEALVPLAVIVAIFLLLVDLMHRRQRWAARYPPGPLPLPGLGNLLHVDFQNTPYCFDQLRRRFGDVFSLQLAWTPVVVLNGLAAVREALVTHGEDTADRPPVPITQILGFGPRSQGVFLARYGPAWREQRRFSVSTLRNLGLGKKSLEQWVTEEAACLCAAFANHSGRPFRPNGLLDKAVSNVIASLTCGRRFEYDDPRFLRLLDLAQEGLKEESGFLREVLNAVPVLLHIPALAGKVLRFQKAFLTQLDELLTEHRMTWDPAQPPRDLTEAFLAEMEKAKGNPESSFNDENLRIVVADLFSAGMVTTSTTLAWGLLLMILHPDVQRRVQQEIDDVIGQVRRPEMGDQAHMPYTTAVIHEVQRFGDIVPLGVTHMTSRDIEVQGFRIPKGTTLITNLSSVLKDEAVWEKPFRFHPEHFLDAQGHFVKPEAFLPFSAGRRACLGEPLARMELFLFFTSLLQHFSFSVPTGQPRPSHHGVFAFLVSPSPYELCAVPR
The next data set concerns the target T2, CYP1A2 (Homo sapiens, UniProt P05177).
T2 sequence (P05177 1-516): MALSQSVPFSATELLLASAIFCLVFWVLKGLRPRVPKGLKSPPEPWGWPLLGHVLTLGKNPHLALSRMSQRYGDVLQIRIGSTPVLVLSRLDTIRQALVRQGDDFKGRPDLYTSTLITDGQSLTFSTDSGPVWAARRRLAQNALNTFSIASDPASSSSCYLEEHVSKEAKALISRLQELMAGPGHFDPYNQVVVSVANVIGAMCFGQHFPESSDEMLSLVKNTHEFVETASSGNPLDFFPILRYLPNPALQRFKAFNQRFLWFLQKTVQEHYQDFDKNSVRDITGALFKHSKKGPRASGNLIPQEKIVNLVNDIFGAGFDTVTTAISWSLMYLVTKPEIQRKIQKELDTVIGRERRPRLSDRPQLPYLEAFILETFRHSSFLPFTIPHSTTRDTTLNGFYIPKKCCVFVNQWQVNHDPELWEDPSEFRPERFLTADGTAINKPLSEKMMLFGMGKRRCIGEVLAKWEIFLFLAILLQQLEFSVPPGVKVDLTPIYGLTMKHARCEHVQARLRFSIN
The settings on record: human liver microsomes, pH 7.4, probe tacrine.

A further data set has as its target CYP2C9 (Homo sapiens, UniProt P11712). The settings on record: human liver microsomes, pH 7.4, probe diclofenac. On the technique in general: Liver microsomes are vesicles of endoplasmic reticulum, rich in cytochrome P450 enzymes.

CYP2C9, sequence (P11712 whole entry): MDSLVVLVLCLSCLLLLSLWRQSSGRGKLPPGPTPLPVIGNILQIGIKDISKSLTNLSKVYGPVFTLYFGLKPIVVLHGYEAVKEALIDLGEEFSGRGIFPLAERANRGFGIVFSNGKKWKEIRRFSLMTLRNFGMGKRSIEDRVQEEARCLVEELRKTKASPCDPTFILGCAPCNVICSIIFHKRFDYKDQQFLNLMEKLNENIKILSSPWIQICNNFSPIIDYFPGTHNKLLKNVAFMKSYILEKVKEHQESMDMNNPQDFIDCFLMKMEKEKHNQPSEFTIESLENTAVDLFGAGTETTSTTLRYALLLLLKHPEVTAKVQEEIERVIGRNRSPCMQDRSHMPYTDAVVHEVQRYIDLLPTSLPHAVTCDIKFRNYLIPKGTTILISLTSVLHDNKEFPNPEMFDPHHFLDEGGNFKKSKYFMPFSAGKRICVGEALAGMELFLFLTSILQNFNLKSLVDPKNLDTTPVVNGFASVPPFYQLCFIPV

As to `CC1(CO)C(O[C@@H]2O[C@H](C(=O)O)[C@@H](O)[C@H](O)[C@H]2O)CC[C@@]2(C)C1CC[C@]1(C)C2CC=C2[C@H]3CC(C)(C)[C@H](O)[C@@H](O)[C@]3(CO)[C@H](O)C[C@]21C` (stereo partly shown) [DGA, deacylgymnemic acid], the “effect on CYP2C8 activity (in words)” value on human CYP2C8 was “unaffected”.

Regarding `Clc1ccc(COC(Cn2ccnc2)c2ccc(Cl)cc2Cl)c(Cl)c1` (stereo not shown) [MCZN, miconazole], the IC50 (as a rule, the concentration at which inhibition is half-maximal) at 8 min was 0.56 µg/mL (≈ 1.35 µM) against CYP2D6, 0.89 µg/mL (≈ 2.14 µM) on CYP1A2 and 0.19 µg/mL (≈ 0.457 µM) against CYP2C9.
